The source of these data is patent US10670605B2, “Cysteine reactive probes and uses thereof” (The Scripps Research Institute, priority 2015, dated 2020).

Molecules are shown by their SMILES.

Common to all, as to assay: Competitive isoTOP-ABPP in situ (fragment-treated cells)
What all share (assay type): cell-based

For assay [1], the target named is T1, cysteines in MDA-MB-231 and Ramos cells (Homo sapiens, UniProt P31943).
T1 sequence (P31943 1-449): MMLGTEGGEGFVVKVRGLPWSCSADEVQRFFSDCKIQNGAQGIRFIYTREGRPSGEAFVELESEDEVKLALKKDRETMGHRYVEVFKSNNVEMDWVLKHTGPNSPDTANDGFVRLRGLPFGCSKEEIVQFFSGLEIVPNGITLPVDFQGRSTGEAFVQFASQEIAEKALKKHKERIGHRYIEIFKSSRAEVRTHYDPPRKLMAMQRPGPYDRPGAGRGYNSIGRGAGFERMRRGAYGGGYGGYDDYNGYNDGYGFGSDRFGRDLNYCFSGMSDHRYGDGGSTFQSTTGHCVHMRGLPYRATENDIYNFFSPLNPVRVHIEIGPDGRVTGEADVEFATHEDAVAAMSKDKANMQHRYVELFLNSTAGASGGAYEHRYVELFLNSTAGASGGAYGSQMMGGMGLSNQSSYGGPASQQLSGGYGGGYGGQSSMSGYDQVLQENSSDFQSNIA
Particulars: 200 μM, insitu.

Assay [2] deals with T2, cysteines in MDA-MB-231 and Ramos cells (Homo sapiens, UniProt Q96AB3).
T2 sequence (Q96AB3 1-205): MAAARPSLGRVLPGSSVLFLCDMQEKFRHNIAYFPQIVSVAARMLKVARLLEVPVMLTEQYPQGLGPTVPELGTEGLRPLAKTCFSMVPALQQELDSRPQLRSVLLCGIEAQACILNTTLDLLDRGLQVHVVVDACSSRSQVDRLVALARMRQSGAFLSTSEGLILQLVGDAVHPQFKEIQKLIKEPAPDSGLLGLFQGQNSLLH
The following applies: 200 μM, insitu, 231.

Assay [3] concerns the target T3, cysteines in MDA-MB-231 and Ramos cells (Homo sapiens, UniProt O14879).
T3 sequence (O14879 1-490): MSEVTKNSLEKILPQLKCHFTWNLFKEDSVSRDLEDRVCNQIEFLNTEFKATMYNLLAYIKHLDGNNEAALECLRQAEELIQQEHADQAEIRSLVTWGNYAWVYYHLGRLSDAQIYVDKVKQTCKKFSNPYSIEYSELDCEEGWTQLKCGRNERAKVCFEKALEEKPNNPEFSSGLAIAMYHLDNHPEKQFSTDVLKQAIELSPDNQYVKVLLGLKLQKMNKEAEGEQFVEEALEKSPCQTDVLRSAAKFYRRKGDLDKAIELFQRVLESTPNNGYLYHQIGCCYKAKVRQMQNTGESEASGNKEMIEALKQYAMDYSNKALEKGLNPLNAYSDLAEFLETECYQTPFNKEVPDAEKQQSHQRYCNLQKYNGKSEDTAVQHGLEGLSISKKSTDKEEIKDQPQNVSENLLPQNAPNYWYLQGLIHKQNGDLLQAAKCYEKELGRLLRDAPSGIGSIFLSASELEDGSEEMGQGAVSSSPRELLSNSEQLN
The following applies: 200 μM, insitu, 231.

Assay [4] deals with T4, cysteines in MDA-MB-231 and Ramos cells (Homo sapiens, UniProt O95229).
T4 sequence (O95229 1-277): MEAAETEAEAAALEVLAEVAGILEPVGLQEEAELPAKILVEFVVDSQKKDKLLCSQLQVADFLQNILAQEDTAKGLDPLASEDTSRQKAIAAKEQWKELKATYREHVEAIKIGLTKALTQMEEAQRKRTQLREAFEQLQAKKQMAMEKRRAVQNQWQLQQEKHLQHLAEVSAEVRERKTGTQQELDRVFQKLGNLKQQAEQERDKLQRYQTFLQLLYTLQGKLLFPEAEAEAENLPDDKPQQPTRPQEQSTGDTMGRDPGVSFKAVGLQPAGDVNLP
Particulars: 200 μM, insitu.

Assay [5] has as its target T5, cysteines in MDA-MB-231 and Ramos cells (Homo sapiens, UniProt O95336).
T5 sequence (O95336 1-258): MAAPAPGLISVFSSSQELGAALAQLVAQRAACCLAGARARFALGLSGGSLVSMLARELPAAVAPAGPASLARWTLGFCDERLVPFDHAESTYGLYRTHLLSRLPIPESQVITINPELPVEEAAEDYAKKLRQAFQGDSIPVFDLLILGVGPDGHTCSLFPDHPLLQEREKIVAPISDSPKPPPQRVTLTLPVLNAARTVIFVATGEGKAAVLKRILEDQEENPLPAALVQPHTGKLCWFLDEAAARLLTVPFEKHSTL
The following applies: 200 μM, insitu.

For assay [6], the target named is T6, cysteines in MDA-MB-231 and Ramos cells (Homo sapiens, UniProt P35611).
T6 sequence (P35611 1-737): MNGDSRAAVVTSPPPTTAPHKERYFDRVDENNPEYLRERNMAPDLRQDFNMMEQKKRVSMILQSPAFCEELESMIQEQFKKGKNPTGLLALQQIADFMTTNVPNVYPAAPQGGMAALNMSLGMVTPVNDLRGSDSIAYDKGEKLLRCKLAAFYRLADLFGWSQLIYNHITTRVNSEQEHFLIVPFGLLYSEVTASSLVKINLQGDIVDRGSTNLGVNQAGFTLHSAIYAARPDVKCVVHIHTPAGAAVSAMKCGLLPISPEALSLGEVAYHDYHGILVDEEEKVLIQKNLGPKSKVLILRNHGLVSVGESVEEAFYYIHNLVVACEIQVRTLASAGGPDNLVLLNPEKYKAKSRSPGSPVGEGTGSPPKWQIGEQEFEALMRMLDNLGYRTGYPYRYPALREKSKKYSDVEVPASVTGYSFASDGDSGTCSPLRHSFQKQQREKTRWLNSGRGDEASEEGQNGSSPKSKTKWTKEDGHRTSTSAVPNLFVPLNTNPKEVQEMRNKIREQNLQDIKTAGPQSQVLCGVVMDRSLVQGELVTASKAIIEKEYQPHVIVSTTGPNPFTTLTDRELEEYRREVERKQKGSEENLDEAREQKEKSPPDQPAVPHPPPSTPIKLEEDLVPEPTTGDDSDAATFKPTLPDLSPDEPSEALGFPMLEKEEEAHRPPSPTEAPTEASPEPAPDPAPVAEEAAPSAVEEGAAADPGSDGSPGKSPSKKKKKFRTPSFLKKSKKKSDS
Particulars: 200 μM, insitu.

The target in assay [7] is T7, cysteines in MDA-MB-231 and Ramos cells (Homo sapiens, UniProt P23919).
T7 sequence (P23919 1-212): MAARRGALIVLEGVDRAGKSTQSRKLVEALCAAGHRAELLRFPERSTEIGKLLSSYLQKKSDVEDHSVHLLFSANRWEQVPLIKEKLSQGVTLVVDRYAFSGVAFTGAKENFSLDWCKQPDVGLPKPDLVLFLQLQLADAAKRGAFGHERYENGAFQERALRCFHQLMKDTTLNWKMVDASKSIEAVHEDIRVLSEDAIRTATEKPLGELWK
Particulars: 200 μM, insitu, 231.

`O=C(CCl)NCCc1c[nH]c2ccccc12` [compound 13]: the figures for the “isoTOP-ABPP ratio P31943_C267” value in assay [1] (231) and in assay [1] (ramos) were 1.1 and 1.2, respectively. In assay [2], the “isoTOP-ABPP ratio Q96AB3_C114” value is 2.4. Also, the “isoTOP-ABPP ratio O14879_C343” value in assay [3] is 1.0. In addition, the “isoTOP-ABPP ratio O95229_C54” value in assay [4] (231) is on record as 0.8; in assay [4] (ramos) it was 1.4. The “isoTOP-ABPP ratio O95336_C32” value is recorded as 1.6 in assay [5] (231) and 2.2 in assay [5] (ramos). The “isoTOP-ABPP ratio P35611_C68” value stood at 1.1 in assay [6] (231) and 1.0 in assay [6] (ramos). In assay [7], the “isoTOP-ABPP ratio, cysteine P23919_C117” value is on record as 0.6.
`O=C(CCl)NC12CC3CC(CC(C3)C1)C2` [compound 21]: in assay [1] (231), the “isoTOP-ABPP ratio P31943_C267” value was 1.5. Also, the “isoTOP-ABPP ratio Q96AB3_C114” value in assay [2] is on record as 4.9. The “isoTOP-ABPP ratio O14879_C343” value in assay [3] came to 0.8. Moreover, the “isoTOP-ABPP ratio O95229_C54” value in assay [4] (231) is 0.8. In addition, the “isoTOP-ABPP ratio O95336_C32” value in assay [5] (231) is given as 0.9. Moreover, the “isoTOP-ABPP ratio P35611_C68” value in assay [6] (231) worked out at 0.8. In assay [7], the “isoTOP-ABPP ratio, cysteine P23919_C117” value is recorded as 0.9.
For the molecule `CC(C)CCOCCNC(=O)CCl` [compound 27], in assay [1] (231), the “isoTOP-ABPP ratio P31943_C267” value was 1.1. The “isoTOP-ABPP ratio Q96AB3_C114” value in assay [2] is recorded as 1.0. In assay [3], the “isoTOP-ABPP ratio O14879_C343” value was found to be 0.4. In addition, in assay [4] (231), the “isoTOP-ABPP ratio O95229_C54” value is recorded as 0.5. The “isoTOP-ABPP ratio O95336_C32” value in assay [5] (231) amounted to 0.5. Moreover, in assay [6] (231), the “isoTOP-ABPP ratio P35611_C68” value is recorded as 0.9. Besides, the “isoTOP-ABPP ratio P23919_C163” value in assay [7] was found to be 0.2.
`Cc1ccc(C=C(C#N)C(=O)NCCN2CCOCC2)cc1` [compound 41]: in assay [1] (231), the “isoTOP-ABPP ratio P31943_C267” value is given as 1.0. Moreover, the “isoTOP-ABPP ratio Q96AB3_C114” value in assay [2] turned out to be 0.7. The “isoTOP-ABPP ratio O14879_C343” value in assay [3] was 0.3. Besides, the “isoTOP-ABPP ratio O95229_C54” value in assay [4] (231) turned out to be 0.6. Besides, in assay [5] (231), the “isoTOP-ABPP ratio O95336_C32” value is 0.6. Further, the “isoTOP-ABPP ratio P35611_C68” value in assay [6] (231) was 0.9. In addition, in assay [7], the “isoTOP-ABPP ratio P23919_C163” value came out at 0.2.
